Laboratory results taken from patent US7811352B2, “Fertilizer compositions and methods of using” (priority 2005, dated 2010).

Tests used:
Format in all cases: in vivo
[1] = system: Pennlinks creeping bentgrass maintained as a golf fairway; experiment: Turfgrass quality rating, fairway creeping bentgrass (Example 15); conditions: scale of 1-9
Source text: (§1) In this Example, the effect of a fertilizer comprising lysine on cool season fairway turfgrass growth was examined. The effects of lysine (HCl) and LIQUID LYSINE on a common type of golf course fairway variety turfgrass (Pennlinks creeping bentgrass maintained as a golf fairway) were compared with those of urea, Milorganite and a blended fertilizer (a blend of methylene urea and urea in an approximately 1:1 ratio).
Fifteen fertilizer treatments comprising three concentrations of each fertilizer composition (Milorganite (N—P—K, 6-2-0), urea (N—P—K, 46-0-0), a blended fertilizer, LIQUID LYSINE (N—P—K, 10-2-1), and lysine (HCl) (N—P—K, 15-2-1)) were prepared and applied to 3 replications of a well established Pennlinks creeping bentgrass maintained as a golf fairway grass. The urea, lysine (HCl), and LIQUID LYSINE were dissolved/suspended in 1.5 gal water prior to application. […] The urea, LIQUID LYSINE and lysine (HCl) were applied as foliar liquids, while Milorganite and the blended fertilizer were applied as granular fertilizers. Plot size was 4 ft×8 ft laid out in a replicated complete block design. Plots were mowed at 0.5 inches before fertilizer application and mowed three times per week to 0.5 inch height. Grass clippings were not removed from the plots and no supplemental cultural maintenance was applied. Irrigation (0.15 inch) was applied following application and every other day thereafter. Plots were rated for turfgrass quality (scale of 1-9 where 9=dark green turf, 1=dead/brown turf, and 6=minimally acceptable turf and phytotoxic injury (scale of 0-9 where 9=significant foliar injury and 2=minimally objectional foliar injury) throughout the study period. Quality was measured prior to application (day 0) and day 37, day 70 and day 95 after application. Injury was measured on day 37, day 70 and day 95 after application. All data was subject to statistical analysis and significant means were determined. Average turfgrass quality ratings for the treatments are presented in Table 24.

[2] = system: Pennlinks creeping bentgrass for greens; experiment: Turfgrass quality rating, greens creeping bentgrass (Example 16); conditions: scale of 1-9
Source text: as §1, with “greens quality” for “fairway”, “greens quality” for “fairway variety”, “for greens, mown at 0.1875 in height of cut)” for “maintained as a golf fairway)”
Fifteen fertilizer treatments comprising three concentrations of each fertilizer composition (Milorganite (N—P—K, 6-2-0), urea (N—P—K, 46-0-0), a blended fertilizer, LIQUID LYSINE N—P—K, 10-2-1), and lysine (HCl) (N—P—K, 15-2-1)) were prepared and applied to 3 replications of well established Pennlinks creeping bentgrass mown to 0.1875 in height cut. The urea, lysine (HCl), and LIQUID LYSINE were dissolved/suspended in 1.5 gal water prior to application. Each fertilizer treatment was applied in concentrations of 0.125 lb N/1000 ft^2/week, 0.250 lb N/1000 ft^2/week and 0.750 lb N/1000 ft^2/week. The urea, LIQUID LYSINE and lysine (HCl) were applied as foliar liquids, while Milorganite and blended fertilizer were applied as granular fertilizers. Plot size was 4 ft×8 ft laid out in a replicated complete block design. Plots were mowed at 0.1875 inches height before fertilizer application and mowed five times per week to 0.1875 inch height. Grass clippings were removed from the plots after each mowing. Irrigation (0.15 inch) was applied following application and daily thereafter. Plots were rated for turfgrass quality (scale of 1-9 where 9=dark green turf, 1=dead/brown turf, and 6=minimally acceptable turf) and phytotoxic injury (scale of 0-9 where 9=significant foliar injury and 2=minimally objectionable foliar injury) throughout the study period. Quality was measured prior to application (day 0) and day 37, day 70 and day 95 after application. Injury was measured on day 37, day 70 and day 95 after application. Ai) additional set of turfgrass plots were fertilized with three treatments of a soy concentrate fertilizer with the same application rates and methods. The quality and phytotoxic injury of the soy concentrate fertilizer plots were measured on day 95. All data was subject to statistical analysis and significant means were determined.

[3] = system: Moonlight Kentucky bluegrass; experiment: Phytotoxic injury rating, Kentucky bluegrass lawn (Example 17)
Source text: as §1, with “lawn variety” for “fairway”, “variety” for “type”, “law” for “golf course fairway variety”, “(Moonlight Kentucky bluegrass)” for “(Pennlinks creeping bentgrass maintained as a golf fairway)”
Fifteen fertilizer treatments comprising three concentrations of each fertilizer composition (Milorganite N—P—K, 6-2-0), urea (N—P—K, 46-0-0), a blended fertilizer, LIQUID LYSINE (N—P—K, 10-2-1), and lysine (HCl) (N—P—K, 15-2-1)) were prepared and applied to 3 replications of newly established “Moonlight” variety Kentucky bluegrass lawn turfgrass. The urea, lysine (HCl), and LIQUID LYSINE were dissolved/suspended in 1.5 gal water prior to application. […], […], The urea, LIQUID LYSINE and lysine (HCl) were applied as foliar liquids, while Milorganite and the blended fertilizer were applied as granular fertilizers. Plot size was 4 ft×8 ft laid out in a replicated complete block design. Plots were mowed at 2.0 inches before fertilizer application and mowed two times per week to 2.0 inch height. Grass clippings were not removed from the plots and no supplemental cultural maintenance or pest management was applied. Irrigation (0.15 inch) was applied following application and thereafter only when necessary to insure survival of the turf. Plots were rated for turfgrass quality (scale of 1-9 where 9=dark green turf, 1=dead/brown turf, and 6=minimally acceptable turf) and phytotoxic injury (scale of 0-9 where 9=significant foliar injury and 2=minimally objectionable foliar injury) throughout the study period. Quality was measured prior to application (day 0) and day 37, day 70 and day 95 after application. Injury was measured on day 37 and day 70 after application. In addition, blade density of the grass was measured on day 70 after application (scale of 1-9, where 9=very dense turf, 1=low density turf). All data was subject to statistical analysis and significant means were determined.

[4] = Weekly Rate 0.5 lbs N/1000 ft^2, Day 0
[5] = Weekly Rate 0.5 lbs N/1000 ft^2, Day 37
[6] = Weekly Rate 0.5 lbs N/1000 ft^2, Day 70
[7] = Weekly Rate 0.5 lbs N/1000 ft^2, Day 95
[8] = Weekly Rate 1.0 lbs N/1000 ft^2, Day 0
[9] = Weekly Rate 1.0 lbs N/1000 ft^2, Day 37
[10] = Weekly Rate 1.0 lbs N/1000 ft^2, Day 70
[11] = Weekly Rate 1.0 lbs N/1000 ft^2, Day 95
[12] = Weekly Rate 3.0 lbs N/1000 ft^2, Day 0
[13] = Weekly Rate 3.0 lbs N/1000 ft^2, Day 37
[14] = Weekly Rate 3.0 lbs N/1000 ft^2, Day 70
[15] = Weekly Rate 3.0 lbs N/1000 ft^2, Day 95
[16] = Weekly Rate 0.125 lbs N/1000 ft^2, Day 0
[17] = Weekly Rate 0.125 lbs N/1000 ft^2, Day 37
[18] = Weekly Rate 0.125 lbs N/1000 ft^2, Day 70
[19] = Weekly Rate 0.125 lbs N/1000 ft^2, Day 95
[20] = Weekly Rate 0.25 lbs N/1000 ft^2, Day 0
[21] = Weekly Rate 0.25 lbs N/1000 ft^2, Day 37
[22] = Weekly Rate 0.25 lbs N/1000 ft^2, Day 70
[23] = Weekly Rate 0.25 lbs N/1000 ft^2, Day 95
[24] = Weekly Rate 0.75 lbs N/1000 ft^2, Day 0
[25] = Weekly Rate 0.75 lbs N/1000 ft^2, Day 37
[26] = Weekly Rate 0.75 lbs N/1000 ft^2, Day 70
[27] = Weekly Rate 0.75 lbs N/1000 ft^2, Day 95

Row | SMILES | Quality Rating - Fairway Bentgrass [1, 4] [a] | Quality Rating - Fairway Bentgrass [1, 5] [ab] | Quality Rating - Fairway Bentgrass [1, 6] | Quality Rating - Fairway Bentgrass [1, 7] [a] | Quality Rating - Fairway Bentgrass [1, 8] [a] | Quality Rating - Fairway Bentgrass [1, 9] [a] | Quality Rating - Fairway Bentgrass [1, 10] | Quality Rating - Fairway Bentgrass [1, 11] [a] | Quality Rating - Fairway Bentgrass [1, 12] [a] | Quality Rating - Fairway Bentgrass [1, 13] | Quality Rating - Fairway Bentgrass [1, 14] | Quality Rating - Fairway Bentgrass [1, 15] [a] | Quality Rating - Greens Bentgrass [2, 16] | Quality Rating - Greens Bentgrass [2, 17] | Quality Rating - Greens Bentgrass [2, 18] | Quality Rating - Greens Bentgrass [2, 19] | Quality Rating - Greens Bentgrass [2, 20] | Quality Rating - Greens Bentgrass [2, 21] | Quality Rating - Greens Bentgrass [2, 22] [bc] | Quality Rating - Greens Bentgrass [2, 23] [ab] | further results
1 | Cl.NCCCC[C@H](N)C(=O)O [Lys (HCl) 15% N, L-lysine monohydrochloride] | 6.3 | 6.0 | 6.0 | 7.0 | 7.0 | 7.0 | 5.7 | 7.0 | 7.0 | 6.7ab | 5.7 | 7.0 | 4.7cd | 5.0de | 6.0bc | 6.0ab | 4.7cd | 6.0bcd | 6.0 | 6.3 | Quality Rating - Greens Bentgrass [2, 24]: 6.0a; Quality Rating - Greens Bentgrass [2, 25]: 7.0ab; Quality Rating - Greens Bentgrass [2, 26]: 7.0a; Quality Rating - Greens Bentgrass [2, 27]: 7.0a; Injury Rating - Kentucky Bluegrass [3, 5]: 1.7de; Injury Rating - Kentucky Bluegrass [3, 6]: 5.0c; Injury Rating - Kentucky Bluegrass [3, 9]: 2.7cd; Injury Rating - Kentucky Bluegrass [3, 10]: 6.0abc; Injury Rating - Kentucky Bluegrass [3, 13]: 6.3a; Injury Rating - Kentucky Bluegrass [3, 14]: 7.0ab
2 | NC(N)=O [Urea, urea, reference compound] | 6.7 | 6.7 | 6.0 | 7.0 | 7.0 | 7.0 | 6.7 | 7.0 | 6.3 | 7.0a | 6.0 | 7.0 | 4.3de | 4.7ef | 5.7c | 5.7b | 5.0bc | 6.3bc | 6.0 | 6.0 | Quality Rating - Greens Bentgrass [2, 24]: 5.3b; Quality Rating - Greens Bentgrass [2, 25]: 8.0a; Quality Rating - Greens Bentgrass [2, 26]: 7.0a; Quality Rating - Greens Bentgrass [2, 27]: 6.7ab; Injury Rating - Kentucky Bluegrass [3, 5]: 1.0e; Injury Rating - Kentucky Bluegrass [3, 6]: 5.0c; Injury Rating - Kentucky Bluegrass [3, 9]: 1.3e; Injury Rating - Kentucky Bluegrass [3, 10]: 5.7bc; Injury Rating - Kentucky Bluegrass [3, 13]: 3.3bc; Injury Rating - Kentucky Bluegrass [3, 14]: 7.0ab
